We go through 30 molecules from patent publication US11318157B2, “6-6 bicyclic aromatic ring substituted nucleoside analogues for use as PRMT5 inhibitors” (Janssen Pharmaceutica NV, priority 2015, dated 2022).

The structures appear in SMILES notation. Like-named read-outs stand apart in the source and are kept apart here. Some results are limits rather than exact numbers.

For test [1], the system named is nuclear symmetric Arginine dimethylation in A549 cells. The experiment in a line: PD assay (assay 2): inhibition of nuclear symmetric Arginine dimethylation (SYM10 immunohistochemistry), 48 h. Type of test: cell-based. Conditions: for IC50: Homo sapiens; for pIC50 Assay 2: averaged values. The procedure, abridged: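 Cells seeded at 400/well overnight, then treated 48 h at 37 °C, final DMSO 0.2%. Fixed and stained with SYM10 antibody plus Alexa 488 secondary, Hoechst and CellMask, then imaged on Opera. Normalized to DMSO (high) and 10 μM reference compound (low); averaged pIC50 reported.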

For test [2], the target named is T1, PRMT5-MEP50 enzyme (Homo sapiens, UniProt O14744).
T1 construct: One virus expresses full length human PRMT5 with Flag-tag at N-terminus; Flag (N); purchased Charles River (Argenta); host or cells: insect cells (Sf9), baculovirus co-infection
T1 sequence (O14744 whole entry): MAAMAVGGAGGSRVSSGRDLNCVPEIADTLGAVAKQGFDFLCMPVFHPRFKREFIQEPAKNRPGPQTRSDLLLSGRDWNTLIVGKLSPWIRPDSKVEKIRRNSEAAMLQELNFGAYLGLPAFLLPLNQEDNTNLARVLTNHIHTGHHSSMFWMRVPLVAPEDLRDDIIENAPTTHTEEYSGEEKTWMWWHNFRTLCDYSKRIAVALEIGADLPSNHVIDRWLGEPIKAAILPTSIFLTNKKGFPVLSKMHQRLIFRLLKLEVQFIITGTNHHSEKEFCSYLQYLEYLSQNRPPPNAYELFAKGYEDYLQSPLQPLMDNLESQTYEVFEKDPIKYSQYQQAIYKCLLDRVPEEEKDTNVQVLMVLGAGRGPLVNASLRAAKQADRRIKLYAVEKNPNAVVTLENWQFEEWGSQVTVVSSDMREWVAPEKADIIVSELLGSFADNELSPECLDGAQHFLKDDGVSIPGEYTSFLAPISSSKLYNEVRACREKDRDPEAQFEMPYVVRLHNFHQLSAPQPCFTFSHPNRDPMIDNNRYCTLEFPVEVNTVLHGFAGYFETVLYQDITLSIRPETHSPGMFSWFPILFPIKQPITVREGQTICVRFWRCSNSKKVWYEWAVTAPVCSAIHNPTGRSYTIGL
T1 sequence (Q9BQA1 whole entry partner): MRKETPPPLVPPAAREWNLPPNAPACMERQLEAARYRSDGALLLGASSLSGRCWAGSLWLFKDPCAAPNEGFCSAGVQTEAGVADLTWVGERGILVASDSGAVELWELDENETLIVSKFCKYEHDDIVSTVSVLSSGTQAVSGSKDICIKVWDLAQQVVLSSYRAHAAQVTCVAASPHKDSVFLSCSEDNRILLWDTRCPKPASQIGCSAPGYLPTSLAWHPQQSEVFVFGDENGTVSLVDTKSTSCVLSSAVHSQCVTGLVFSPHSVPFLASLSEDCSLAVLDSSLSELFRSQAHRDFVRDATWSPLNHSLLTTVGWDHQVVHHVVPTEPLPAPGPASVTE
The experiment in a line: In vitro assay 1b: high throughput mass spectrometer assay of SAH formation, 1.25 nM enzyme, 120 min. The format is biochemical. Conditions: averaged values, PRMT5-MEP50, 1.25 nM enzyme, 120 min; for IC50: read-out: pIC50 Assay 1b (converted). The procedure, abridged:
(§1)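 Flag-PRMT5/His-MEP50 complex from Sf9 cells, with 1 μM SAM and 0.3 μM full-length histone H2A in pH 8.5 Tris buffer, at 30 °C; 10 nM enzyme for 60 min (1a) or 1.25 nM for 120 min (1b). Formic acid-quenched SAH read by RapidFire MS/MS; 11-point IC50 with Hill fit.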

For test [3], the target named is T1, PRMT5-MEP50 enzyme. The experiment in a line: In vitro assay 1a: high throughput mass spectrometer assay of SAH formation, 10 nM enzyme, 60 min. The format is biochemical. Conditions: averaged values, PRMT5-MEP50, 10 nM enzyme, read-out: pIC50 Assay 1a (converted). The procedure, abridged: as §1
Where [4] appears, read: A549, averaged values, PD assay, A549 cells, symmetric Arginine dimethylation, read-out: pIC50 Assay 2 (converted).
Where [5] appears, read: PD assay, A549 cells, symmetric Arginine dimethylation.

With `Cc1cnc2cc(CC[C@H]3C[C@@H](n4ccc5c(N)ncnc54)[C@H](O)[C@@H]3O)ccc2c1` [Compound 113], the IC50 was 5.01 nM in test [1] (setting [4]), 10 nM at PRMT5-MEP50 enzyme [2] and 5.01 nM at PRMT5-MEP50 enzyme [3].
On to `Nc1ncnc2c1ccn2[C@@H]1O[C@H](CNc2ccc3cccnc3c2)[C@@H](O)[C@H]1O` [Compound 49], for which the IC50 in test [1] (setting [4]) is 10 nM; at PRMT5-MEP50 enzyme [2], 10 nM; at PRMT5-MEP50 enzyme [3], 3.98 nM.
As for `O[C@@H]1[C@H](O)[C@@H](COc2ccc3ccc(NCC4CC4)nc3c2)O[C@H]1n1ccc2cncnc21` [Compound 170], the IC50 was 79.4 nM in test [1] (setting [4]), 63.1 nM on PRMT5-MEP50 enzyme [2] and 6.31 nM at PRMT5-MEP50 enzyme [3].
The corresponding values for `Nc1ccc2ccc(CC[C@H]3C[C@@H](n4ccc5c(Cl)ncnc54)[C@H](O)[C@@H]3O)cc2n1` [Compound 110] are 0.501 nM, 1.58 nM and 2 nM.
Consider `CN(C)Cc1ccc2ccc(OC[C@H]3O[C@@H](n4ccc5c(N)ncnc54)[C@H](O)[C@@H]3O)cc2n1` [Compound 97], for which the IC50 in test [1] (setting [4]) was more than 10000 nM; at PRMT5-MEP50 enzyme [2], 15800 nM; at PRMT5-MEP50 enzyme [3] it was more than 10000 nM.
Regarding `O[C@@H]1[C@@H](CCc2ccc3ccc(NCc4ccccc4)nc3c2)C[C@@H](n2ccc3cncnc32)[C@@H]1O` [Compound 172], the results for the IC50 (in test [1] (setting [4]); on PRMT5-MEP50 enzyme [2]; on PRMT5-MEP50 enzyme [3]) were less than 1.17 nM, 3.98 nM and 0.501 nM, respectively.
With `Cc1ncnc2c1ccn2[C@@H]1O[C@H](CCc2ccc3ccc(NCc4ccc(Cl)cc4)nc3c2)[C@@H](O)[C@H]1O` [Compound 177], the IC50 is 63.1 nM in test [1] (setting [4]), 31.6 nM on PRMT5-MEP50 enzyme [2] and 10 nM at PRMT5-MEP50 enzyme [3].
As for `CNc1ccc2ccc(CC[C@H]3C[C@@H](n4ccc5c(N)ncnc54)[C@H](O)[C@@H]3O)cc2n1` [Compound 126], the IC50 was 0.316 nM in test [1] (A549, read-out: pIC50 Assay 2 (converted)); 2.51 nM at PRMT5-MEP50 enzyme [2]; 0.501 nM at PRMT5-MEP50 enzyme [3].
For `COc1ncnc2c1ccn2[C@@H]1O[C@H](CNc2ccc3cc(Br)cnc3c2)[C@@H](O)[C@H]1O` [Compound 87], the figures for the IC50 (in test [1] (setting [4]); at PRMT5-MEP50 enzyme [2]; on PRMT5-MEP50 enzyme [3]) were 1580 nM, 1000 nM and 501 nM, respectively.
Regarding `Nc1ncnc2c1ccn2[C@@H]1C[C@H](COc2ccc3cc(Br)cnc3c2)[C@@H](O)[C@H]1O` [Compound 47], the IC50 was 50.1 nM in test [1] (setting [4]), 63.1 nM at PRMT5-MEP50 enzyme [2] and 25.1 nM on PRMT5-MEP50 enzyme [3].
The corresponding values for `O[C@@H]1[C@@H](CCc2ccc3ccc(NCc4ccc(Cl)cc4)nc3c2)C[C@@H](n2ccc3cncnc32)[C@@H]1O` [Compound 171] are 3.16 nM, 6.31 nM and 0.794 nM.
Consider `Nc1ncnc2c1ccn2[C@@H]1O[C@H](COc2ccc3c(Cl)c(Cl)cnc3c2)[C@@H](O)[C@H]1O` [Compound 35], for which the IC50 was 398 nM in test [1] (setting [4]), 794 nM on PRMT5-MEP50 enzyme [2] and 398 nM at PRMT5-MEP50 enzyme [3].
Consider `Nc1ncnc2c1ccn2[C@@H]1O[C@H](COc2ccc3c(C(F)(F)F)ccnc3c2)[C@@H](O)[C@H]1O` [Compound 99], for which the IC50 is more than 10000 nM in test [1] (setting [4]), more than 100000 nM at PRMT5-MEP50 enzyme [2] and more than 10000 nM at PRMT5-MEP50 enzyme [3].
Turning to `N#Cc1cnc2cc(OC[C@H]3O[C@@H](n4ccc5c(N)ncnc54)[C@H](O)[C@@H]3O)ccc2c1Cl` [Compound 28], the IC50 in test [1] (setting [4]) was more than 20000 nM; at PRMT5-MEP50 enzyme [2] it was 7940 nM; on PRMT5-MEP50 enzyme [3], more than 10000 nM.
For `Nc1ncnc2c1ccn2[C@@H]1C[C@H](CCc2ccc3cnc(NCC4CC4)nc3c2)[C@@H](O)[C@H]1O` [Compound 141], the IC50 in test [1] (setting [4]) was 63.1 nM; at PRMT5-MEP50 enzyme [2] it was 50.1 nM; at PRMT5-MEP50 enzyme [3] it was 7.94 nM.
Take `Nc1ncnc2c1ccn2[C@@H]1C[C@H](Cc2ccc3ccncc3c2)[C@@H](O)[C@H]1O` [Compound 95]: the IC50 is more than 10000 nM in test [1] (setting [4]), 501 nM at PRMT5-MEP50 enzyme [2] and 316 nM on PRMT5-MEP50 enzyme [3].
Regarding `CC(Oc1ccc2cccnc2c1)[C@H]1O[C@@H](n2ccc3c(N)ncnc32)[C@H](O)[C@@H]1O` (single isomer, unassigned) [Compound 68], the “pIC50 Assay 2” value in test [1] (setting [5]) was approximately 5.14. The IC50 on PRMT5-MEP50 enzyme [2] was more than 100000 nM; on PRMT5-MEP50 enzyme [3], 2510 nM.
`Cc1cnc2cc(OC[C@H]3O[C@@H](n4ccc5c(N)ncnc54)[C@H](O)[C@@H]3O)ccc2c1` [Compound 217]: the IC50 was 39.8 nM in test [1] (setting [4]), 20 nM at PRMT5-MEP50 enzyme [2] and 5.01 nM at PRMT5-MEP50 enzyme [3].
With `Nc1ncnc2c1ccn2[C@@H]1O[C@H](COc2cc(Cl)c3cccnc3c2)[C@@H](O)[C@H]1O` [Compound 102], the IC50 in test [1] (setting [4]) is more than 10000 nM; on PRMT5-MEP50 enzyme [2] it was 501 nM; at PRMT5-MEP50 enzyme [3], 100 nM.
On to `O[C@@H]1[C@H](O)[C@@H](CCc2ccc3ccc(NCc4ccc(Cl)cc4)nc3c2)O[C@H]1n1ccc2cncnc21` [Compound 165], for which the results for the IC50 (in test [1] (setting [4]); at PRMT5-MEP50 enzyme [2]; on PRMT5-MEP50 enzyme [3]) were 20 nM, 31.6 nM and 3.98 nM, respectively.
Consider `CC(C)C(=O)O[C@@H]1[C@H](OC(=O)C(C)C)[C@@H](COc2ccc3cccnc3c2)O[C@H]1n1ccc2c(N)ncnc21` [Compound 89], for which the IC50 was 63.1 nM in test [1] (setting [4]), 31600 nM on PRMT5-MEP50 enzyme [2] and more than 10000 nM on PRMT5-MEP50 enzyme [3].
For the molecule `Nc1ncnc2c1ccn2[C@@H]1O[C@H](COc2ccc3cccnc3c2I)[C@@H](O)[C@H]1O` [Compound 40], the IC50 was approximately 12000 nM in test [1] (setting [4]), 1580 nM at PRMT5-MEP50 enzyme [2] and 2510 nM on PRMT5-MEP50 enzyme [3].
Take `CC(C)c1cnc2cc(OC[C@H]3O[C@@H](n4ccc5c(N)ncnc54)[C@H](O)[C@@H]3O)ccc2c1` [Compound 214]: the figures for the IC50 (in test [1] (setting [4]); at PRMT5-MEP50 enzyme [2]; on PRMT5-MEP50 enzyme [3]) were 398 nM, 100 nM and 31.6 nM, respectively.
As for `O[C@@H]1[C@H](O)[C@@H](CCc2ccc3ccc(NCC4CC4)nc3c2)O[C@H]1n1ccc2cncnc21` [Compound 168], the IC50 in test [1] (setting [4]) is 126 nM; at PRMT5-MEP50 enzyme [2] it was 50.1 nM; at PRMT5-MEP50 enzyme [3], 3.98 nM.
As to `Nc1ncnc2c1ccn2[C@@H]1C[C@H](CCc2ccc3ccc(NCC(F)(F)F)nc3c2)[C@@H](O)[C@H]1O` [Compound 151], the values for the IC50 (in test [1] (setting [4]); on PRMT5-MEP50 enzyme [2]; on PRMT5-MEP50 enzyme [3]) were 5.01 nM, 15.8 nM and 0.794 nM, respectively.
In the case of `CNc1ccc2ccc(OC[C@H]3O[C@@H](n4ccc5c(Cl)ncnc54)[C@H](O)[C@@H]3O)cc2n1` [Compound 136], the IC50 in test [1] (setting [4]) was 501 nM; at PRMT5-MEP50 enzyme [2], 50.1 nM; on PRMT5-MEP50 enzyme [3], 7.94 nM.
For `Nc1ncnc2c1ccn2[C@@H]1C[C@H](OCc2ccc3cnccc3c2)[C@@H](O)[C@H]1O` [Compound 85], the results for the IC50 (in test [1] (setting [4]); on PRMT5-MEP50 enzyme [2]; on PRMT5-MEP50 enzyme [3]) were 12600 nM, 7940 nM and more than 10000 nM, respectively.
With `Nc1ncnc2c1ccn2[C@@H]1C[C@H](CNc2ccc3cc(Br)cnc3c2)[C@@H](O)[C@H]1O` [Compound 54a], the “pIC50 Assay 2” value in test [1] (setting [5]) came out at 7.4. For the same molecule, the “pIC50 Assay 1b” value against PRMT5-MEP50 enzyme [2] is 7.8. Besides, the IC50 at PRMT5-MEP50 enzyme [3] was 7.94 nM.
As for `NC(=O)c1ccc2ccc(OC[C@H]3O[C@@H](n4ccc5c(N)ncnc54)[C@H](O)[C@@H]3O)cc2n1` [Compound 245], the IC50 was more than 20000 nM in test [1] (setting [4]), 3160 nM on PRMT5-MEP50 enzyme [2] and 2000 nM on PRMT5-MEP50 enzyme [3].
Take `Nc1ncc2ccc(CC[C@H]3C[C@@H](n4ccc5c(N)ncnc54)[C@H](O)[C@@H]3O)cc2n1` [Compound 216]: the IC50 in test [1] (setting [4]) was 10 nM; at PRMT5-MEP50 enzyme [2], 7.94 nM; at PRMT5-MEP50 enzyme [3] it was 1 nM.
